Reference: ChEMBL document CHEMBL1909599, “Synthesis and anti-HIV-1 activity of 4-substituted-7-(2'-deoxy-2'-fluoro-4'-azido-β-D-ribofuranosyl)pyrrolo[2,3-d]pyrimidine analogues” (Bioorg Med Chem Lett, 2011)

Test system: Human immunodeficiency virus 1
Assay: Antiviral activity against Human immunodeficiency virus 1 assessed as inhibition of viral replication by MTT assay
Assay type: functional, organism-based

| SMILES | EC50 [nM] |
| --- | --- |
| [N-]=[N+]=N[C@]1(CO)O[C@@H](n2ccc3c(O)ncnc32)[C@@H](F)[C@@H]1O | 13000 |
| [N-]=[N+]=N[C@]1(CO)O[C@@H](n2ccc3c(N)ncnc32)[C@@H](F)[C@@H]1O | 500 |
| [N-]=[N+]=N[C@]1(CO)O[C@@H](n2cc(F)c3c(N)ncnc32)[C@@H](F)[C@@H]1O | 5400 |
| Cc1cn([C@H]2C[C@H](N=[N+]=[N-])[C@@H](CO)O2)c(=O)[nH]c1=O [ZIDOVUDINE] | 84 |
